Experimental data reported in patent publication US10174053B2, “2 substituted cephem compounds” (Glaxo Group Limited, priority 2012, dated 2019).
Converted amounts (≈) assume the structure as drawn.

How the values were obtained:
Test in all cases: In vitro antimicrobial activity, MIC by broth microdilution (CLSI)
Type in all cases: cell-based
[1] = test system: A. baumannii JMI2346; conditions: OXA-51, TEM, ESBL and OXA-type carbapenemase producing strain, 5×10^5 cfu/mL, cation-adjusted Iso-Sensitest broth containing human Apo-transferrin; for MIC: Acinetobacter baumannii, JMI2346, read-out: Minimum Inhibitory Concentration (MIC) A. baumannii JMI:2346
Protocol: (§1) Compound (I) of the invention was evaluated for in vitro antimicrobial activity thereof.
(§2) Measurement of Minimum Inhibitory Concentration (MIC: μg/mL) was conducted according to CLSI (Clinical and Laboratory Standards Institute) method, and the amount of bacteria for inoculation was 5×10^5 cfu/mL, and cation-adjusted Iso-Sensitest broth containing human Apo-transferrin was used as a test medium, and the experiment was conducted using broth microdilution method. The bacteria used are listed below.

[2] = test system: A. baumannii JMI7; conditions: PER-1, OXA-23, 51, ESBL and OXA-type carbapenemase producing strain, 5×10^5 cfu/mL, cation-adjusted Iso-Sensitest broth containing human Apo-transferrin; for MIC: Acinetobacter baumannii, JMI7, read-out: Minimum Inhibitory Concentration (MIC) A. baumannii JMI:7
Protocol: as §1, §2

[3] = test system: E. Coli JMI1890; conditions: PER-1, TEM-1, ESBL producing strain, 5×10^5 cfu/mL, cation-adjusted Iso-Sensitest broth containing human Apo-transferrin; for MIC: Escherichia coli, read-out: Minimum Inhibitory Concentration (MIC) E. Coli JMI:1890
Protocol: as §1, §2

[4] = test system: K. pneumoniae SR01358; conditions: KPC-2, ESBL and KPC-type carbapenemase producing strain, 5×10^5 cfu/mL, cation-adjusted Iso-Sensitest broth containing human Apo-transferrin; for MIC: Klebsiella pneumoniae, SR01358, read-out: Minimum Inhibitory Concentration (MIC) K. pneumoniae SR01358
Protocol: as §1, §2

C[C@@H]1S[C@@H]2[C@H](NC(=O)/C(=N\OC(C)(C)C(=O)[O-])c3csc(N)n3)C(=O)N2C(C(=O)[O-])=C1C[N+]12CCC(Cn3ncc4c(Cl)c(O)c(O)cc4c3=O)(CC1)CC2.[Na+] [Compound I-113]
MIC [1]: 4 µg/mL | MIC [2]: 0.25 µg/mL | MIC [3]: 0.25 µg/mL | MIC [4]: ≤ 0.031 µg/mL

C[C@@H]1S[C@@H]2[C@H](NC(=O)/C(=N\OC(C)(C)C(=O)[O-])c3csc(N)n3)C(=O)N2C(C(=O)[O-])=C1C[N@+]1(C)[C@@H]2CC[C@H]1C[C@@H](NC(=O)C(=O)c1cc(O)c(O)c(Cl)c1)C2.[Na+] [Compound I-12]
MIC [1]: 4 µg/mL | MIC [2]: 1 µg/mL | MIC [3]: 0.25 µg/mL | MIC [4]: ≤ 0.031 µg/mL

C[C@@H]1S[C@@H]2[C@H](NC(=O)/C(=N\OC(C)(C)C(=O)[O-])c3csc(N)n3)C(=O)N2C(C(=O)O)=C1C[N+]12CCC(CNC(=O)/C(=N\O)c3ccc(O)c(O)c3Cl)(CC1)CC2 [Compound I-94]
MIC [1]: 4 µg/mL (≈ 4.79 µM) | MIC [2]: 1 µg/mL (≈ 1.2 µM) | MIC [3]: 0.5 µg/mL (≈ 0.599 µM) | MIC [4]: 0.063 µg/mL (≈ 0.0754 µM)

C[C@@H]1S[C@@H]2[C@H](NC(=O)/C(=N\OC(C)(C)C(=O)[O-])c3csc(N)n3)C(=O)N2C(C(=O)[O-])=C1C[N+]12CCC(CNN3C(=O)c4cc(O)c(O)c(Cl)c4C3=O)(CC1)CC2.[Na+] [Compound I-114]
MIC [1]: 4 µg/mL | MIC [2]: 0.5 µg/mL | MIC [3]: 0.125 µg/mL | MIC [4]: ≤ 0.031 µg/mL

C[C@@H]1S[C@@H]2[C@H](NC(=O)/C(=N\OC(C)(C)C(=O)[O-])c3csc(N)n3)C(=O)N2C(C(=O)[O-])=C1C[N+]12CCC(CC1)N(C(=O)C(=O)c1cc(O)c(O)c(Cl)c1)CC2.[Na+] [Compound I-16]
MIC [1]: 8 µg/mL | MIC [2]: 1 µg/mL | MIC [3]: 0.5 µg/mL | MIC [4]: ≤ 0.031 µg/mL

C[C@@H]1S[C@@H]2[C@H](NC(=O)/C(=N\OC(C)(C)C(=O)O)c3csc(N)n3)C(=O)N2C(C(=O)[O-])=C1C[N+]12CCC(Cn3ncc4cc(O)c(O)c(Cl)c4c3=O)(CC1)CC2 [Compound I-125]
MIC [1]: 8 µg/mL (≈ 9.79 µM) | MIC [2]: 0.5 µg/mL (≈ 0.612 µM) | MIC [3]: 0.125 µg/mL (≈ 0.153 µM) | MIC [4]: ≤ 0.031 µg/mL

C[C@@H]1S[C@@H]2[C@H](NC(=O)/C(=N\OC(C)(C)C(=O)[O-])c3csc(N)n3)C(=O)N2C(C(=O)[O-])=C1C[N+]12CCC(CNC(=O)c3cc(O)c(O)c(F)c3)(CC1)CC2.[Na+] [Compound I-72]
MIC [1]: 4 µg/mL | MIC [2]: 1 µg/mL | MIC [3]: 0.125 µg/mL | MIC [4]: ≤ 0.031 µg/mL

C[C@@H]1S[C@@H]2[C@H](NC(=O)/C(=N\OC(C)(C)C(=O)[O-])c3csc(N)n3)C(=O)N2C(C(=O)O)=C1C[N@+]1(C)[C@@H]2CC[C@H]1C[C@@H](NC(=O)c1ccc(O)c(O)c1Cl)C2 [Compound I-54]
MIC [1]: 1 µg/mL (≈ 1.26 µM) | MIC [2]: 0.5 µg/mL (≈ 0.631 µM) | MIC [3]: 0.125 µg/mL (≈ 0.158 µM) | MIC [4]: ≤ 0.031 µg/mL

CO/N=C(\C(=O)NCC12CC[N+](CC3=C(COO)N4C(=O)[C@@H](NC(=O)/C(=N\OC(C)(C)C(=O)[O-])c5csc(N)n5)[C@H]4S[C@H]3C)(CC1)CC2)c1cc(O)c(O)c(Cl)c1 [Compound I-131]
Minimum Inhibitory Concentration (MIC) A. baumannii JMI:2346 [1]: 2 µg/mL | Minimum Inhibitory Concentration (MIC) A. baumannii JMI:7 [2]: 2 µg/mL | Minimum Inhibitory Concentration (MIC) E. Coli JMI:1890 [3]: 0.125 µg/mL | Minimum Inhibitory Concentration (MIC) K. pneumoniae SR01358 [4]: 0.063 µg/mL

C[C@@H]1S[C@@H]2[C@H](NC(=O)/C(=N\OC(C)(C)C(=O)[O-])c3csc(N)n3)C(=O)N2C(C(=O)[O-])=C1C[N+]12CCC(CNC(=O)c3c[nH]c4cc(O)c(O)c(Cl)c4c3=O)(CC1)CC2.[Na+] [Compound I-169, (4S,6R,7R)-7-((Z)-2-(2-aminothiazol-4-yl)-2-(((2-carboxypropan-2-yl)oxy)imino)acetamido)-3-((4-((5-chloro-6,7-dihydroxy-4-oxo-1,4-dihydroquinoline-3-carboxamido)methyl)quinuclidin-1-ium-1-yl)methyl)-4-methyl-8-oxo-5-thia-1-azabicyclo[4.2.0]oct-2-ene-2-carboxylate, Sodium salt]
MIC [1]: 0.5 µg/mL | MIC [2]: 0.25 µg/mL | MIC [3]: 0.063 µg/mL | MIC [4]: ≤ 0.031 µg/mL

C[C@@H]1S[C@@H]2[C@H](NC(=O)/C(=N\OC(C)(C)C(=O)[O-])c3csc(N)n3)C(=O)N2C(C(=O)[O-])=C1C[N+]12CCC[C@H]1CN(C(=O)C(=O)c1cc(O)c(O)c(F)c1)CC2.[Na+] (stereo partly drawn) [Compound I-85]
MIC [1]: 8 µg/mL | MIC [2]: 2 µg/mL | MIC [3]: 0.5 µg/mL | MIC [4]: 0.25 µg/mL

C[C@@H]1S[C@@H]2[C@H](NC(=O)/C(=N\OC(C)(C)C(=O)[O-])c3csc(N)n3)C(=O)N2C(C(=O)O)=C1C[N+]12CCC(CNC(=O)/C(=N\O)c3ccc(O)c(O)c3)(CC1)CC2 [Compound I-92]
MIC [1]: 16 µg/mL (≈ 20 µM) | MIC [2]: 4 µg/mL (≈ 4.99 µM) | MIC [3]: 2 µg/mL (≈ 2.5 µM) | MIC [4]: 0.125 µg/mL (≈ 0.156 µM)
